Experimental findings from patent US11332459B2 (TEIJIN PHARMA LIMITED, priority 2017, dated 2022) are described below.

The target in this assay is T1, human TRPC6 (Homo sapiens, UniProt Q9Y210).
T1 construct: expressed in transfected cells
T1 sequence (Q9Y210 1-931): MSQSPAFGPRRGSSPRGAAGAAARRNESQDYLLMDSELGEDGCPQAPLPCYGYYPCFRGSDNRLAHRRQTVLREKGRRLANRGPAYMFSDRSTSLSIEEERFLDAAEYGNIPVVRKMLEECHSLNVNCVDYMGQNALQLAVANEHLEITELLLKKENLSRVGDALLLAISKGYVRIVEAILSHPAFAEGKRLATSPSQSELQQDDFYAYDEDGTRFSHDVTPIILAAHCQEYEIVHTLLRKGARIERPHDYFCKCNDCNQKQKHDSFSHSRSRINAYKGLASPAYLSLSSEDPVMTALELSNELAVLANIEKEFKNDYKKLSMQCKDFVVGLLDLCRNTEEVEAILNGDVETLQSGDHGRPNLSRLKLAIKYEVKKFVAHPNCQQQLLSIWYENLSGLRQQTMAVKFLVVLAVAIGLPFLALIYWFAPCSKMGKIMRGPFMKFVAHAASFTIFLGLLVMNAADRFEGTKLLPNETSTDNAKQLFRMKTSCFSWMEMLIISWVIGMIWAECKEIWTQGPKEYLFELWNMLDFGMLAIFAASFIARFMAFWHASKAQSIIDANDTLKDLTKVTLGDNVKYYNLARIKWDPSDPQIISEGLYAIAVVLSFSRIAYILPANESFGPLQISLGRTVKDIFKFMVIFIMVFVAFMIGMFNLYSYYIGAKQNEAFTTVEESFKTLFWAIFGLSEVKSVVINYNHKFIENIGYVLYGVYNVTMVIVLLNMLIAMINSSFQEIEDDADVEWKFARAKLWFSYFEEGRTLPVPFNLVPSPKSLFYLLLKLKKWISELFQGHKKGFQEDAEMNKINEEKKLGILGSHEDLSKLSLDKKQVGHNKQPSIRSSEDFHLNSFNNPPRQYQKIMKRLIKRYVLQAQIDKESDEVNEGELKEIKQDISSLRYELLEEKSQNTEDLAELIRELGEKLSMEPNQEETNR
In words: TRPC6 calcium flux assay (FLIPR, OAG-stimulated calcium influx). The assay is classed as cell-based. Conditions: HEK293 cells stably transfected with human TRPC6, read-out: hTRPC6 Potency. As to the method:
Biological Example 1 TRPC6 Calcium Flux Assay
Potency of TRPC6 (Transient receptor potential channel family C6) inhibitors were measured by their inhibition of Calcium influx trigged by […] (1-Oleoyl-2-acetyl-sn-glycerol, Millipore Sigma, O6754) stimulation on HEK293 cells stablely transfected with human TRPC6 using a FLIPR tetra system. Cells were grown in a humidified environment at 37° C. under 5% CO2 using the growth medium with the following selective reagents (Dulbecco's Modified Eagle's Medium (DMEM) high glucose, 10% Fetal Bovine Serum, 1×PSGlu (penicillin-streptomycin glutamine), 1×NEAA (Non-essential amino acid), 1× Na Pyruvate and 200 ug/ml Hygromycin). For general passage, cells were grown to 70-90% confluency; the media was removed, and the cells were gently washed 2 times with calcium and magnesium free PBS (phosphate-buffered saline). Trypsin (3 mL) was applied for 5 minutes at 37° C. The cells were dislodged by rapping flask against base of a hand and 7 mL of growth medium was added to deactivate trypsin and re-suspend cells. The usual splitting schedule was 1:5 every 2-3 days.
Cells were plated the day before the assay, plating cell density is 1.0-1.5×10^4/25 μl/well in poly-D-lysine (PDL) coated 384-well plates using either multichannel pipettes or multidrop. These cells were first incubated with fluorescence dye at room temperature for 90-120 minutes after they were grown on PDL-coated 384-well black plates overnight (Dye loading buffer 10 ml example: 9 mL assay buffer, 1 mL, 10×PBX signal enhancer, 10 μL Calcium indicator). The cells were incubated with a dose of compounds for 25 minutes before being stimulated with TRPC6 agonist OAG. The OAG solution was prepared by adding OAG into assay buffer (Ca ringer solution base: 10 mM HEPES (4-(2-hydroxyethyl)-1-piperazine-ethanesulfonic acid), 4 mM MgCl2, 120 mM NaCl, 5 mM KCl, pH=7.2 @25° C.)+0.1% BSA+2 mM CaCl2) to the concentration of 0.2 mM/2% DMSO, which achieves a final on cell concentration of 50 uM/0.5% DMSO. 12.5 uL OAG mixture was added and the activation of the TRPC6 channel was measured by the change of intracellular Calcium levels on FLIPR terra system.
Data was acquired by measuring the fluorescent peak signal subtracted from the background during the 180 second imaging frame. Each data point is further normalized to 100% of OAG triggered signal vs. buffer. Table 16 provides the IC50 for each compound, which data is obtained by plotting peak signal over the compound dose.

`CC(c1ncc(Cl)cn1)n1c(N2CC[C@@H](F)[C@H](N)C2)nc2cc(F)c(F)cc21` (stereo in doubt) [Example 508, (3R,4R)-1-(1-((R)-1-(5-chloropyrimidin-2-yl)ethyl)-5,6-difluoro-1H-benzo[d]imidazol-2-yl)-4-fluoropiperidin-3-amine]: the IC50 was found to be 112 nM.
`N#Cc1ccc(Cn2c(N3CCC[C@H](N)C3)nc3ccc(Cl)cc32)nc1` [Example 1, (S)-6-((2-(3-aminopiperidin-1-yl)-6-chloro-1H-benzo[d]imidazol-1-yl)methyl)nicotinonitrile]: the IC50 was found to be 0.696 nM.
`N#Cc1ccc(Cn2c(N3CCC[C@H](N)C3)nc3cc(Cl)ccc32)nc1` [Example 2, (S)-6-((2-(3-aminopiperidin-1-yl)-5-chloro-1H-benzo[d]imidazol-1-yl)methyl)nicotinonitrile]: the IC50 came to 3.2 nM.
With `N#Cc1ccc(Cn2c(N3CCC[C@H](N)C3)nc3c(Cl)cccc32)nc1` [Example 3, (S)-6-((2-(3-aminopiperidin-1-yl)-4-chloro-1H-benzo[d]imidazol-1-yl)methyl)nicotinonitrile], the IC50 was 1.99 nM.
`N#Cc1ccc(Cn2c(N3CC[C@@H](F)[C@H](N)C3)nc3c(Cl)cccc32)nc1` [Example 4]: the IC50 was found to be 1.67 nM.
For `N#Cc1ccc(Cn2c(N3CC[C@H](F)[C@H](N)C3)nc3c(Cl)cccc32)nc1` [Example 5], the IC50 was found to be 2.92 nM.
Regarding `N#Cc1ccc(Cn2c(N3CC[C@@H](F)[C@H](N)C3)nc3ccc(Cl)cc32)nc1` [Example 6, 6-((2-((3R,4R)-3-amino-4-fluoropiperidin-1-yl)-6-chloro-1H-benzo[d]imidazol-1-yl)methyl)nicotinonitrile], the IC50 is 0.4 nM.
In the case of `N#Cc1ccc(Cn2c(N3CC[C@@H](F)[C@H](N)C3)nc3cc(Cl)ccc32)nc1` [Example 7, 6-((2-((3R,4R)-3-amino-4-fluoropiperidin-1-yl)-5-chloro-1H-benzo[d]imidazol-1-yl)methyl)nicotinonitrile], the IC50 came to 1.17 nM.
Turning to `N#Cc1ccc(Cn2c(N3CC[C@H](F)[C@H](N)C3)nc3ccc(Cl)cc32)nc1` [Example 8, 6-((2-((3R,4S)-3-amino-4-fluoropiperidin-1-yl)-6-chloro-1H-benzo[d]imidazol-1-yl)methyl)nicotinonitrile], the IC50 was 0.283 nM.
Regarding `N#Cc1ccc(Cn2c(N3CC[C@H](F)[C@H](N)C3)nc3cc(Cl)ccc32)nc1` [Example 9, 6-((2-((3R,4S)-3-amino-4-fluoropiperidin-1-yl)-5-chloro-1H-benzo[d]imidazol-1-yl)methyl)nicotinonitrile], the IC50 was 1.61 nM.
As for `N#Cc1ccc(Cn2c(N3CCC(F)(F)[C@H](N)C3)nc3c(Cl)cccc32)nc1` [Example 10, (R)-6-((2-(3-amino-4,4-difluoropiperidin-1-yl)-4-chloro-1H-benzo[d]imidazol-1-yl)methyl)nicotinonitrile], the IC50 is 6.06 nM.
The value for `N#Cc1ccc(Cn2c(N3CC[C@@H](F)[C@H](N)C3)nc3c(C#N)cccc32)nc1` [Example 11, 2-((3R,4R)-3-amino-4-fluoropiperidin-1-yl)-1-((5-cyanopyridin-2-yl)methyl)-1H-benzo[d]imidazole-4-carbonitrile] was 1.79 nM.
With `N#Cc1ccc(Cn2c(N3CCC(F)(F)[C@H](N)C3)nc3ccc(Cl)cc32)nc1` [Example 12, (R)-6-((2-(3-amino-4,4-difluoropiperidin-1-yl)-6-chloro-1H-benzo[d]imidazol-1-yl)methyl)nicotinonitrile], the IC50 stood at 0.285 nM.
Regarding `N#Cc1ccc(Cn2c(N3CCC(F)(F)[C@H](N)C3)nc3cc(Cl)ccc32)nc1` [Example 13, (R)-6-((2-(3-amino-4,4-difluoropiperidin-1-yl)-5-chloro-1H-benzo[d]imidazol-1-yl)methyl)nicotinonitrile], the IC50 amounted to 6.87 nM.
Regarding `N#Cc1ccc(Cn2c(N3CC[C@@H](F)[C@H](N)C3)nc3ccc(C(F)(F)F)cc32)nc1` [Example 14, 6-((2-((3R,4R)-3-amino-4-fluoropiperidin-1-yl)-6-(trifluoromethyl)-1H-benzo[d]imidazol-1-yl)methyl)nicotinonitrile], the IC50 came to 0.377 nM.
Consider `N#Cc1ccc(Cn2c(N3CC[C@@H](F)[C@H](N)C3)nc3cc(C(F)(F)F)ccc32)nc1` [Example 15, 6-((2-((3R,4R)-3-amino-4-fluoropiperidin-1-yl)-5-(trifluoromethyl)-1H-benzo[d]imidazol-1-yl)methyl)nicotinonitrile], for which the IC50 is 4.39 nM.
Consider `N#Cc1ccc(Cn2c(N3CC[C@H](F)[C@@H](N)C3)nc3ccccc32)nc1` [Example 16, 6-((2-((3S,4S)-3-amino-4-fluoropiperidin-1-yl)-1H-benzo[d]imidazol-1-yl)methyl)nicotinonitrile], for which the IC50 was found to be 224 nM.
Regarding `N#Cc1ccc(Cn2c(N3C[C@@H](N)CC(F)(F)C3)nc3ccccc32)nc1` [Example 17, (S)-6-((2-(5-amino-3,3-difluoropiperidin-1-yl)-1H-benzo[d]imidazol-1-yl)methyl)nicotinonitrile], the IC50 came out at 118 nM.
As to `N#Cc1ccc(Cn2c(N3CC[C@@H](F)[C@H](N)C3)nc3c(C#N)cc(F)cc32)nc1` [Example 18, 2-((3R,4R)-3-amino-4-fluoropiperidin-1-yl)-1-((5-cyanopyridin-2-yl)methyl)-6-fluoro-1H-benzo[d]imidazole-4-carbonitrile], the IC50 is 7.85 nM.
The value for `N#Cc1ccc(Cn2c(N3CC[C@@H](F)[C@H](N)C3)nc3ccc(OC(F)(F)F)cc32)nc1` [Example 19, 6-((2-((3R,4R)-3-amino-4-fluoropiperidin-1-yl)-6-(trifluoromethoxy)-1H-benzo[d]imidazol-1-yl)methyl)nicotinonitrile] was 0.956 nM.
As for `N#Cc1ccc(Cn2c(N3CC[C@@H](F)[C@H](N)C3)nc3cc(OC(F)(F)F)ccc32)nc1` [Example 20, 6-((2-((3R,4R)-3-amino-4-fluoropiperidin-1-yl)-5-(trifluoromethoxy)-1H-benzo[d]imidazol-1-yl)methyl)nicotinonitrile], the IC50 stood at 1.92 nM.
As to `N#Cc1ccc(Cn2c(N3CC[C@@H](F)[C@H](N)C3)nc3cc(C(F)(F)F)c(F)cc32)nc1` [Example 21, 6-((2-((3R,4R)-3-amino-4-fluoropiperidin-1-yl)-6-fluoro-5-(trifluoromethyl)-1H-benzo[d]imidazol-1-yl)methyl)nicotinonitrile], the IC50 came out at 0.658 nM.
As for `N#Cc1ccc(Cn2c(N3CC[C@@H](F)[C@H](N)C3)nc3cc(F)c(C(F)(F)F)cc32)nc1` [Example 22, 6-((2-((3R,4R)-3-amino-4-fluoropiperidin-1-yl)-5-fluoro-6-(trifluoromethyl)-1H-benzo[d]imidazol-1-yl)methyl)nicotinonitrile], the IC50 was 1.62 nM.
As for `N#Cc1ccc(Cn2c(N3CC[C@@H]4CCN[C@H]4C3)nc3ccccc32)nc1` [Example 23, 6-((2-((3aS,7aR)-hexahydro-1H-pyrrolo[2,3-c]pyridin-6(2H)-yl)-1H-benzo[d]imidazol-1-yl)methyl)nicotinonitrile], the figure is > 3750 nM.
